US8124601B2, “Compounds for the treatment of Hepatitis C” (Bristol-Myers Squibb Company, priority 2007, dated 2012)
Read-outs that look alike come from different tables or passages of the source.

Assays:
HCV NS5B = molecular target: T1, HCV NS5B (Hepatitis C virus genotype 1b, UniProt Q9WMX2); experiment: Modified HCV NS5B RdRp enzyme assay (preincubation protocol); format: biochemical
T1 construct: The protein was expressed with an 18 amino acid C-terminal truncation to enhance the solubility; made in house; host or cells: E. coli BL21(DE3)
T1 sequence (Q9WMX2 2420-2992): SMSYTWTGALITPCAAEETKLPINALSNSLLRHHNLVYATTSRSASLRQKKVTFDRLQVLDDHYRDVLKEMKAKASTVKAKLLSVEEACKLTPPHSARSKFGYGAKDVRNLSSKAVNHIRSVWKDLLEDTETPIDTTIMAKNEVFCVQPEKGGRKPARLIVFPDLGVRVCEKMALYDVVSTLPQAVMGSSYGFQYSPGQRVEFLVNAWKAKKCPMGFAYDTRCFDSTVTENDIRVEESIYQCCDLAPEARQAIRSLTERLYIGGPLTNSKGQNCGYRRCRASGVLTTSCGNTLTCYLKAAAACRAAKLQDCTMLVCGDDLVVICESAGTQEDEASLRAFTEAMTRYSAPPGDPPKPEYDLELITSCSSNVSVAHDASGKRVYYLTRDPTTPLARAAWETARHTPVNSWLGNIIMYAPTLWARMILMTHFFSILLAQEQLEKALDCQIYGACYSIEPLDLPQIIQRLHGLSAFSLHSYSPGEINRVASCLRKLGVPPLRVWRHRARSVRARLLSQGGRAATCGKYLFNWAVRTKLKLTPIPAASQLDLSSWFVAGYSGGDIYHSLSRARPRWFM
Method: HCV NS5B RdRp cloning, expression, and purification. The cDNA encoding the NS5B protein of HCV, genotype 1b, was cloned into the pET21a expression vector. The protein was expressed with an 18 amino acid C-terminal truncation to enhance the solubility. The E. coli competent cell line BL21(DE3) was used for expression of the protein. Cultures were grown at 37° C. for ˜4 hours until the cultures reached an optical density of 2.0 at 600 nm. The cultures were cooled to 20° C. and induced with 1 mM IPTG. Fresh ampicillin was added to a final concentration of 50 μg/ml and the cells were grown overnight at 20° C.
Cell pellets (3 L) were lysed for purification to yield 15-24 mgs of purified NS5B. The lysis buffer consisted of 20 mM Tris-HCl, pH 7.4, 500 mM NaCl, 0.5% triton X-100, 1 mM DTT, 1 mM EDTA, 20% glycerol, 0.5 mg/ml lysozyme, 10 mM MgCl2, 15 ug/ml deoxyribonuclease I, and Complete TM protease inhibitor tablets (Roche). After addition of the lysis buffer, frozen cell pellets were resuspended using a tissue homogenizer. To reduce the viscosity of the sample, aliquots of the lysate were sonicated on ice using a microtip attached to a Branson sonicator. The sonicated lysate was centrifuged at 100,000×g for 1 hr at 4° C. and filtered through a 0.2 μm filter unit (Corning).
The protein was purified using two sequential chromatography steps: Heparin sepharose CL-6B and polyU sepharose 4B (Pharmacia). The chromatography buffers were identical to the lysis buffer but contained no lysozyme, deoxyribonuclease I, MgCl2 or protease inhibitor and the NaCl concentration of the buffer was adjusted according to the requirements for charging the protein onto the column. Each column was eluted with a NaCl gradient which varied in length from 5-50 column volumes depending on the column type. After the final chromatography step, the resulting purity of the enzyme is >90% based on SDS-PAGE analysis. The enzyme was aliquoted and stored at −80° C.
Standard HCV NS5B RdRp enzyme assay. HCV RdRp genotype 1b assays were run in a final volume of 60 μl in 96 well plates (Corning 3600). The assay buffer is composed of 20 mM Hepes, pH 7.5, 2.5 mM KCl, 2.5 mM MgCl2, 1 mM DTT, 1.6 U RNAse inhibitor (Promega N2515), 0.01 mg/ml BSA (Sigma B6917), and 2% glycerol. All compounds were serially diluted (3-fold) in DMSO and diluted further in water such that the final concentration of DMSO in the assay was 2%. HCV RdRp genotype 1b enzyme was used at a final concentration of 28 nM. A polyA template was used at 6 nM, and a biotinylated oligo-dT12 primer was used at 180 nM final concentration. Template was obtained commercially (Amersham 27-4110). Biotinylated primer was prepared by Sigma Genosys. 3H-UTP was used at 0.6 μCi (0.29 μM total UTP). Reactions were initiated by the addition of enzyme, incubated at 30° C. for 60 min, and stopped by adding 25 μl of 50 mM EDTA containing SPA beads (4 μg/μl, Amersham RPNQ 0007). Plates were read on a Packard Top Count NXT after >1 hr incubation at room temperature.
Modified HCV NS5B RdRp enzyme assay. A modified enzyme assay was performed essentially as described for the standard enzyme assay except for the following: The biotinylated oligo dT12 primer was precaptured on streptavidin-coated SPA beads by mixing primer and beads in assay buffer and incubating at room temperature for one hour. Unbound primer was removed after centrifugation. The primer-bound beads were resuspended in 20 mM Hepes buffer, pH 7.5 and used in the assay at final concentrations of 20 nM primer and 0.67 μg/μl beads. Order of addition in the assay: enzyme (1.75 nM) was added to diluted compound followed by the addition of a mixture of template (0.36 nM), 3H-UTP (0.6 μCi, 0.29 μM), and primer-bound beads, to initiate the reaction; concentrations given are final. Reactions were allowed to proceed for 4 hours at 30° C.
IC50 values for compounds were determined using seven different [I]. […]

HCV replicon cells = experiment: HCV replicon FRET assay; format: cell-based
Method: FRET Assay Preparation. The HCV FRET screening assay was performed in 96-well cell culture plates. The FRET peptide (Anaspec, Inc.) (Taliani et al., Anal. Biochem. 1996, 240, 60-67) contains a fluorescence donor, EDANS, near one end of the peptide and an acceptor, DABCYL, near the other end. The fluorescence of the peptide is quenched by […] resonance energy transfer (RET) between the donor and the acceptor, but as the NS3 protease cleaves the peptide the products are released from RET quenching and the fluorescence of the donor becomes apparent. The assay reagent was made as follows: 5× cell Luciferase cell culture lysis reagent from Promega (#E153A) diluted to 1× with dH2O, NaCl added to 150 mM final, the FRET peptide diluted to 20 μM final from a 2 mM stock.
To prepare plates, HCV replicon cells, with or without a Renilla luciferase reporter gene, were trypsinized and plated in a 96-well plate with titrated test compounds added in columns 3 through 12; columns 1 and 2 contained a control compound (HCV control inhibitor), and the bottom row contained cells with DMSO only. The plates were then placed in a CO2 incubator at 37° C.
Assays. Subsequent to addition of the test compounds described above (FRET Assay Preparation), at various times the plate was removed and Alamar blue solution (Trek Diagnostics, #00-100) was added to measure cellular toxicity. After reading in a Cytoflour 4000 instrument (PE Biosystems), plates were rinsed with PBS and then used for FRET assay by the addition of 30 ul of the FRET peptide assay reagent described above (FRET Assay Preparation) per well. The plate was then placed into the Cytoflour 4000 instrument which had been set to 340 excite/490 emission, automatic mode for up to 20 cycles and the plate read in a kinetic mode. Typically, the signal to noise using an endpoint analysis after the reads was at least three-fold. Alternatively, after Alamar blue reading, plates were rinsed with PBS, then used for luciferase assay using the Promega Dual-Glo Luciferase Assay System or the Promega EnduRen Live Cell Substrate assay.
Compound analysis was performed by quantification of the relative HCV replicon inhibition and the relative cytotoxicity values. To calculate cytoxicity values, the average Alamar Blue fluorescence signals from the control wells were set as 100% non-toxic. The individual signals in each of the compound test wells were then divided by the average control signal and multiplied by 100% to determine […]. To calculate the HCV replicon inhibition values, an average background value was obtained from the two wells containing the highest amount of HCV control inhibitor at the end of the assay period. These numbers were similar to those obtained from naïve Huh-7 cells. The background numbers were then subtracted from the average signal obtained from the control wells and this number was used as 100% activity. The individual signals in each of the compound test wells were then divided by the averaged control values after background subtraction and multiplied by 100% to determine percent activity. EC50 values were calculated as the concentration which caused a 50% reduction in FRET or luciferase activity. The two numbers generated for the compound plate, percent cytoxicity and percent activity, were used to determine compounds of interest for further analysis.

Row | Compound | IC50 (HCV NS5B) | EC50 (HCV replicon cells; Hepatitis C virus) | EC50 (HCV replicon cells)
1 | COc1ccc2c(c1)C1CC1(C(=O)N1CCC3(CCN(C(=O)OC(C)(C)C)C3)C1)Cn1c-2c(C2CCCCC2)c2ccc(C(=O)NS(=O)(=O)C(C)C)cc21 (stereo not drawn) | 0.00458 to 0.5 µM | 0.00458 to 0.5 µM | –
2 | COc1ccc2c(c1)C1CC1(C(=O)N1CCC3(CCNC3)C1)Cn1c-2c(C2CCCCC2)c2ccc(C(=O)NS(=O)(=O)C(C)C)cc21 (stereo not drawn) | 0.00458 to 0.5 µM | 0.00458 to 0.5 µM | –
3 | COc1ccc2c(c1)C1CC1(C(=O)N1CCCC3(CCN(C)C3=O)C1)Cn1c-2c(C2CCCCC2)c2ccc(C(=O)NS(=O)(=O)C3CC3)cc21 (stereo not drawn) | 0.00458 to 0.5 µM | 0.00458 to 0.5 µM | –
4 | COc1ccc2c(c1)C1CC1(C(=O)N1CCC3(CCCN3C(=O)OC(C)(C)C)CC1)Cn1c-2c(C2CCCCC2)c2ccc(C(=O)NS(=O)(=O)C(C)C)cc21 (stereo not drawn) | 0.00458 to 0.5 µM | 0.00458 to 0.5 µM | –
5 | CCCS(=O)(=O)NC(=O)c1ccc2c(C3CCCCC3)c3n(c2c1)CC1(C(=O)N2CCC4(CCCN4C(=O)OC(C)(C)C)CC2)CC1c1cc(OC)ccc1-3 (stereo not drawn) | 0.00458 to 0.5 µM | 0.00458 to 0.5 µM | –
6 | COc1ccc2c(c1)C1CC1(C(=O)N1CCC3(CCCN3)CC1)Cn1c-2c(C2CCCCC2)c2ccc(C(=O)NS(=O)(=O)C(C)C)cc21 (stereo not drawn) | 0.00458 to 0.5 µM | 0.00458 to 0.5 µM | –
7 | CCCS(=O)(=O)NC(=O)c1ccc2c(C3CCCCC3)c3n(c2c1)CC1(C(=O)N2CCC4(CCCN4)CC2)CC1c1cc(OC)ccc1-3 (stereo not drawn) | 0.00458 to 0.5 µM | 0.00458 to 0.5 µM | –
8 | COc1ccc2c(c1)C1CC1(C(=O)N1CCC3(CCCN3C)CC1)Cn1c-2c(C2CCCCC2)c2ccc(C(=O)NS(=O)(=O)C(C)C)cc21 (stereo not drawn) | 0.00458 to 0.5 µM | 0.00458 to 0.5 µM | –
9 | CCCS(=O)(=O)NC(=O)c1ccc2c(C3CCCCC3)c3n(c2c1)CC1(C(=O)N2CCC4(CCCN4C)CC2)CC1c1cc(OC)ccc1-3 (stereo not drawn) | 0.00458 to 0.5 µM | 0.00458 to 0.5 µM | –
10 | COc1ccc2c(c1)C=C(C(=O)N1CCCC13CCN(C)CC3)Cn1c-2c(C2CCCCC2)c2ccc(C(=O)NS(=O)(=O)C(C)C)cc21 | 0.00458 to 0.5 µM | 0.00458 to 0.5 µM | –
11 | COc1ccc2c(c1)C1CC1(C(=O)N1CCCC13CCN(C)CC3)Cn1c-2c(C2CCCCC2)c2ccc(C(=O)NS(=O)(=O)C(C)C)cc21 (stereo not drawn) | 0.00458 to 0.5 µM | 0.00458 to 0.5 µM | –
12 | CCCS(=O)(=O)NC(=O)c1ccc2c(C3CCCCC3)c3n(c2c1)CC1(C(=O)N2CCCC24CCN(C)CC4)CC1c1cc(OC)ccc1-3 (stereo not drawn) | 0.00458 to 0.5 µM | 0.00458 to 0.5 µM | –
13 | COc1ccc2c(c1)C1CC1(C(=O)N1CCC3(CCCN3C(C)=O)CC1)Cn1c-2c(C2CCCCC2)c2ccc(C(=O)NS(=O)(=O)C(C)C)cc21 (stereo not drawn) | 0.00458 to 0.5 µM | 0.00458 to 0.5 µM | –
14 | CCCS(=O)(=O)NC(=O)c1ccc2c(C3CCCCC3)c3n(c2c1)CC1(C(=O)N2CCC4(CCCN4C(C)=O)CC2)CC1c1cc(OC)ccc1-3 (stereo not drawn) | 0.00458 to 0.5 µM | 0.00458 to 0.5 µM | –
15 | COc1ccc2c(c1)C1CC1(C(=O)N1CCNC3(CCCC3)C1)Cn1c-2c(C2CCCCC2)c2ccc(C(=O)NS(=O)(=O)C(C)C)cc21 (stereo not drawn) | 0.00458 to 0.5 µM | 0.00458 to 0.5 µM | –
16 | COc1ccc2c(c1)C1CC1(C(=O)N1CCNC3(CCCCC3)C1)Cn1c-2c(C2CCCCC2)c2ccc(C(=O)NS(=O)(=O)C(C)C)cc21 (stereo not drawn) | 0.00458 to 0.5 µM | 0.00458 to 0.5 µM | –
17 | CCCS(=O)(=O)NC(=O)c1ccc2c(C3CCCCC3)c3n(c2c1)CC1(C(=O)N2CCNC4(CCCC4)C2)CC1c1cc(OC)ccc1-3 (stereo not drawn) | 0.00458 to 0.5 µM | 0.00458 to 0.5 µM | –
18 | CCCS(=O)(=O)NC(=O)c1ccc2c(C3CCCCC3)c3n(c2c1)CC1(C(=O)N2CCNC4(CCCCC4)C2)CC1c1cc(OC)ccc1-3 (stereo not drawn) | 0.00458 to 0.5 µM | 0.00458 to 0.5 µM | –
19 | COc1ccc2c(c1)C1CC1(C(=O)N1CCN(C)C3(CCCC3)C1)Cn1c-2c(C2CCCCC2)c2ccc(C(=O)NS(=O)(=O)C(C)C)cc21 (stereo not drawn) | 0.00458 to 0.5 µM | 0.00458 to 0.5 µM | –
20 | COc1ccc2c(c1)C1CC1(C(=O)N1CCN(C)C3(CCCCC3)C1)Cn1c-2c(C2CCCCC2)c2ccc(C(=O)NS(=O)(=O)C(C)C)cc21 (stereo not drawn) | 0.00458 to 0.5 µM | 0.00458 to 0.5 µM | –
21 | CCCS(=O)(=O)NC(=O)c1ccc2c(C3CCCCC3)c3n(c2c1)CC1(C(=O)N2CCN(C)C4(CCCC4)C2)CC1c1cc(OC)ccc1-3 (stereo not drawn) | 0.00458 to 0.5 µM | 0.00458 to 0.5 µM | –
22 | COc1ccc2c(c1)C1CC1(C(=O)N1CCCC3(CCN(C)C3=O)C1)Cn1c-2c(C2CCCCC2)c2ccc(C(=O)NS(=O)(=O)C(C)C)cc21 (stereo not drawn) [drawing 21] | 0.00458 to 0.5 µM | 0.00458 to 0.5 µM | –
23 | COc1ccc2c(c1)C1CC1(C(=O)N1CCCC3(CCN(C)C3=O)C1)Cn1c-2c(C2CCCCC2)c2ccc(C(=O)NS(=O)(=O)C(C)C)cc21 (stereo not drawn) [drawing 22] | 0.00458 to 0.5 µM | – | 0.00458 to 0.5 µM
24 | COc1ccc2c(c1)C1CC1(C(=O)N1CCCC3(CCN(C)C3)C1)Cn1c-2c(C2CCCCC2)c2ccc(C(=O)NS(=O)(=O)C(C)C)cc21 (stereo not drawn) [drawing 23] | 0.00458 to 0.5 µM | 0.00458 to 0.5 µM | –
25 | COc1ccc2c(c1)C1CC1(C(=O)N1CCCC3(CCN(C)C3)C1)Cn1c-2c(C2CCCCC2)c2ccc(C(=O)NS(=O)(=O)C(C)C)cc21 (stereo not drawn) [drawing 24] | 0.00458 to 0.5 µM | – | 0.00458 to 0.5 µM
26 | CCCS(=O)(=O)NC(=O)c1ccc2c(C3CCCCC3)c3n(c2c1)CC1(C(=O)N2CCCC4(CCN(C)C4)C2)CC1c1cc(OC)ccc1-3 (stereo not drawn) [drawing 25] | 0.00458 to 0.5 µM | 0.00458 to 0.5 µM | –
27 | CCCS(=O)(=O)NC(=O)c1ccc2c(C3CCCCC3)c3n(c2c1)CC1(C(=O)N2CCCC4(CCN(C)C4)C2)CC1c1cc(OC)ccc1-3 (stereo not drawn) [drawing 26] | 0.00458 to 0.5 µM | – | 0.00458 to 0.5 µM
